Our source for the IC50 values is patent US20100009970A1, “COMPOSITIONS AND METHODS FOR TREATMENT OF VIRAL DISEASES” (Combinatorx (Singapore) Pte. Ltd., priority 2008, published 2010).

As a reminder, the IC50 is the point on the concentration scale where inhibition reaches its midpoint. Read a low IC50 as inhibition by little substance.

Structures can show the parent of a compound that is named as a salt.

In the assay the test system is Huh7 cells expressing a subgenomic RNA replicon of Con1 (genotype 1b) sequence origin. Description: microbe, parasite or virus in culture. The settings on record: Hepatitis C virus, Huh-7.
`C[C@@H]1C[C@@H]([C@H](O)CC2CC(=O)NC(=O)C2)C(=O)[C@@H](C)C1` [Cycloheximide, reference compound]: it took 0.184 µM to reach half-maximal inhibition (IC50). This counts as sub-micromolar. With `Nc1ccn([C@@H]2O[C@H](CO)[C@@H](O)[C@@H]2O)c(=O)n1` [Cytarabine, reference compound], the midpoint of inhibition, the IC50, lay at 0.117 µM. To `C[C@]12CC[C@H](O)CC1=CC[C@@H]1[C@@H]2CC[C@]2(C)C(=O)CC[C@@H]12` [Dehydroepiandrosterone, reference compound] belongs 11.2 µM; to `CN1[C@@H]2CC[C@H]1C[C@@H](OC1c3ccccc3CCc3ccccc31)C2` [Deptropine (e.g., citrate), deptropine, reference compound], 11.1 µM.

For the compound `N[C@H](Cc1cc(I)c(Oc2cc(I)c(O)c(I)c2)c(I)c1)C(=O)O` [Dextrothyroxine (e.g., sodium), dextrothyroxine, reference compound], the IC50 came to 5 µM. As for `CCCCOc1cc(C(=O)NCCN(CC)CC)c2ccccc2n1` [Dibucaine (e.g., hydrochloride), Dibucaine, reference compound], the figure is 6.68 µM. On to `C/C=C(/C(=C/C)c1ccc(O)cc1)c1ccc(O)cc1` [Dienestrol, reference compound], for which the IC50 stood at 16.5 µM.

In the case of `C[C@H]1[C@@H](O)O[C@@H]2O[C@@]3(C)CC[C@H]4[C@H](C)CC[C@@H]1[C@@]24OO3` [Dihydroartemisinin, dihydroartemisinin, reference compound], it took 3.87 µM to reach half-maximal inhibition (IC50). As to `CN1C[C@H](C(=O)N[C@]2(C)O[C@@]3(O)[C@@H]4CCCN4C(=O)[C@H](Cc4ccccc4)N3C2=O)C[C@@H]2c3cccc4[nH]cc(c34)C[C@H]21` [Dihydroergotamine (e.g., mesylate), dihydroergotamine, reference compound], inhibition was half-maximal at 22.8 µM (IC50).

Compound `COc1cc(C(=O)OCCCN2CCCN(CCCOC(=O)c3cc(OC)c(OC)c(OC)c3)CC2)cc(OC)c1OC` [Dilazep (e.g., dihydrochloride), Dilazep, reference compound] returned an IC50 of 13.9 µM. This IC50 lies about 1.6-fold lower than the previous one. In turn, `OC(CCCN1CCCCC1)(c1ccccc1)c1ccccc1` [Diphenidol (e.g., hydrochloride), Diphenidol, reference compound] returned an IC50 of 25.4 µM. Against the preceding compound, the IC50 is about 1.8-fold higher. In turn, `CCN(CC)C(=S)SSC(=S)N(CC)CC` [Disulfiram, reference compound] gave an IC50 of 5.5 µM. This IC50 is about 4.6-fold lower than that of the compound before. To `CC(=O)[C@H]1CC[C@H]2[C@@H]3C=CC4=CC(=O)CC[C@@]4(C)[C@@H]3CC[C@]12C` [Dydrogesterone, reference compound] belongs 2.75 µM. Regarding `CCc1cn([C@H]2C[C@H](O)[C@@H](CO)O2)c(=O)[nH]c1=O` [Edoxudine, edoxudine, reference compound], half-maximal inhibition (IC50) was put at 1.95 µM. This IC50 and that of the compound before are within 1.5-fold of each other. For the compound `O=C1Nc2ccc(Cl)cc2[C@@](C#CC2CC2)(C(F)(F)F)O1` [Efavirenz, efavirenz, reference compound], the IC50 was 15.5 µM. `CC[C@H]1CN2CCc3cc(OC)c(OC)cc3[C@@H]2C[C@@H]1C[C@H]1NCCc2cc(OC)c(OC)cc21` [Emetine (e.g., dihydrochloride hydrate), Emetine, reference compound] gave an IC50 of 0.03 µM. In turn, `O=CN/C=C/c1cc(O)ccc1O` [Erbstatin, reference compound] showed an IC50 of 7.63 µM. Consider `CCN(CC)CCO[C@H]1CC[C@@]2(C)C(=CC[C@@H]3[C@@H]2CC[C@]2(C)C(=O)CC[C@@H]32)C1` [Example U18666A, reference compound], for which the midpoint of inhibition, the IC50, lay at 0.02 µM. Regarding `C=C1C[C@@H]2[C@H](CC[C@]3(C)C(=O)CC[C@@H]23)[C@@]2(C)C=CC(=O)C=C12` [Exemestane, reference compound], 29 µM corresponded to half-maximal inhibition (IC50).

The compound `O=C1C(CC[C@@H](O)c2ccc(F)cc2)[C@@H](c2ccc(O)cc2)N1c1ccc(F)cc1` (stereo partly drawn) [Ezetimibe, ezitamibe, reference compound] registered an IC50 of 4.2 µM. As for `O=C1c2ccccc2-[n+]2ccc3c([nH]c4ccccc43)c21` [Fascaplysin, reference compound], half-maximal inhibition (IC50) was put at 0.444 µM. Consider `COC(=O)Nc1nc2ccc(Sc3ccccc3)cc2[nH]1` [Fenbendazole, reference compound], for which it took 0.419 µM to reach half-maximal inhibition (IC50). For `CC1=C(/C=C/C(C)=C/C=C/C(C)=C/C(=O)Nc2ccc(O)cc2)C(C)(C)CCC1` [Fenretinide, reference compound], the IC50 is 2.26 µM. With `CC(C)C(C(=O)OC(C#N)c1cccc(Oc2ccccc2)c1)c1ccc(Cl)cc1` (stereo not drawn) [Fenvalerate], it took 18.9 µM to reach half-maximal inhibition (IC50). In turn, `O=c1[nH]c(=O)n([C@H]2C[C@H](O)[C@@H](CO)O2)cc1F` [Floxuridine, floxuridine, reference compound] showed an IC50 of 0.0045 µM. Compared with the last compound, the IC50 is about 4200-fold lower. For `COC(=O)Nc1nc2cc(C(=O)c3ccc(F)cc3)ccc2[nH]1` [Flubendazole, reference compound], the IC50 was 0.173 µM. For the compound `Nc1nc(F)nc2c1ncn2[C@@H]1O[C@H](CO)[C@@H](O)[C@@H]1O` [Fludarabine, reference compound], it took 4.47 µM to reach half-maximal inhibition (IC50). As for `O=c1[nH]cc(F)c(=O)[nH]1` [Fluorouracil, reference compound], the IC50 was 18.7 µM.

In turn, `CC(C)n1c(/C=C/C(O)CC(O)CC(=O)O)c(-c2ccc(F)cc2)c2ccccc21` (stereo not drawn) [Fluvastatin (e.g., sodium), fluvastatin, reference compound] yielded an IC50 of 22.2 µM. The IC50 values of the last two compounds are within 1.5-fold of each other.

Consider `COCCCC/C(=N\OCCN)c1ccc(C(F)(F)F)cc1` [Fluvoxamine (e.g., maleate), Fluvoxamine, reference compound], for which the IC50 stood at 23.8 µM. The IC50 values of the last two compounds are within 1.5-fold of each other. For `C[C@]12CC[C@@H]3c4ccc(O)cc4C[C@@H](CCCCCCCCC[S+]([O-])CCCC(F)(F)C(F)(F)F)[C@H]3[C@@H]1CC[C@@H]2O` (stereo partly drawn) [Fulvestrant, reference compound], half-maximal inhibition (IC50) required 3.05 µM. `Nc1ccn([C@@H]2O[C@H](CO)[C@@H](O)C2(F)F)c(=O)n1` [Gemcitabine (e.g., hydrochloride), Gemcitabine, reference compound] came in with an IC50 of 0.06 µM. Compared with the last compound, the IC50 is about 51-fold lower. With `COC1=CC(=O)C[C@@H](C)[C@]12Oc1c(Cl)c(OC)cc(OC)c1C2=O` [Griseofulvin (e.g., microcrystalline), Griseofulvin, reference compound], 11.5 µM corresponded to half-maximal inhibition (IC50). As for `CC1(C)O[C@@H]2C[C@H]3[C@@H]4CCC5=CC(=O)CC[C@]5(C)[C@@]4(F)[C@@H](O)C[C@]3(C)[C@]2(C(=O)CCl)O1` [Halcinonide, halcinonide, reference compound], the figure is 17.4 µM; as for `Oc1ccc(O)cc1` [Hydroquinone, reference compound], 14 µM; as for `CC(C(O)c1ccc(O)cc1)N1CCC(Cc2ccccc2)CC1` (stereo not drawn) [Ifenprodil (e.g., tartrate), Ifenprodil, reference compound], 4.68 µM. As for `CN(C)CCCN1c2ccccc2CCc2ccccc21` [Imipramine (e.g., hydrochloride), Imipramine, reference compound], the IC50 was found to be 16.9 µM. Compared with the last compound, the IC50 is about 3.6-fold higher. Turning to `CC1(C)C(/C=C/C=C/C=C/C=C2\N(CCCCS(=O)(=O)O)c3ccc4ccccc4c3C2(C)C)=[N+](CCCCS(=O)(=O)[O-])c2ccc3ccccc3c21` [Indocyanine Green, reference compound], half-maximal inhibition (IC50) required 8.13 µM. As for `CCc1c2c(nc3ccc(OC(=O)N4CCC(N5CCCCC5)CC4)cc13)-c1cc3c(c(=O)n1C2)COC(=O)[C@]3(O)CC` [Irinotecan (e.g., hydrochloride), irinotecan (CPT-11), reference compound], the figure is 1.56 µM; as for `O=c1cc(N2CCOCC2)oc2c(-c3ccccc3)cccc12` [LY 294002, reference compound], 3.4 µM.

`N[C@@H](Cc1cc(I)c(Oc2cc(I)c(O)c(I)c2)c(I)c1)C(=O)O` [Levothyroxine (e.g., sodium), Levothyroxine, reference compound] showed an IC50 of 3.79 µM. As for `CCN(CCCCOC(=O)c1ccc(OC)c(OC)c1)C(C)Cc1ccc(OC)cc1` (stereo not drawn) [Mebeverine (e.g., hydrochloride), Mebeverine, reference compound], the figure is 14.9 µM. Compound `Cc1cccc(CN2CCN(C(c3ccccc3)c3ccc(Cl)cc3)CC2)c1` (stereo not drawn) [Meclizine, meclizine, reference compound] yielded an IC50 of 14.6 µM. On to `N[C@@H](Cc1ccc(N(CCCl)CCCl)cc1)C(=O)O` [Melphalan, reference compound], for which the IC50 was 5.94 µM. The compound `COc1ccc(O)cc1` [Mequinol, reference compound] gave an IC50 of 18.7 µM. In turn, `COc1cc(NC(=O)Nc2cccc(CNC(=O)O[C@H]3CCOC3)c2)ccc1-c1cnco1` [Merimepodib (VX-497), merimepodib, reference compound] registered an IC50 of 0.475 µM.

As for `CN1CCCCC1CCN1c2ccccc2Sc2ccc([S+](C)[O-])cc21` (stereo not drawn) [Mesoridazine (e.g., Besylate), mesoridazine, reference compound], the IC50 worked out at 19 µM.

In turn, `C[C@H]1CC(=O)C[C@@H]2CC[C@H]3[C@@H]4CC[C@H](O)[C@@]4(C)CC[C@@H]3[C@]21C` [Mesterolone, mesterolone, reference compound] registered an IC50 of 5.18 µM. As for `CC(C=NNC(=N)N)=NNC(=N)N` [Methylglyoxal bis(guanylhydrazone) dihydrochloride hydrate, reference compound], the figure is 10.8 µM; as for `C[C@]12CCC(=O)C=C1CC[C@@H]1[C@@H]2CC[C@@]2(C)[C@H]1CC[C@]2(C)O` [Methyltestosterone, methyltestosterone, reference compound], 19.1 µM; as for `CC[C@H](C)C(=O)O[C@H]1CCC=C2C=C[C@H](C)[C@H](CC[C@@H]3C[C@@H](O)CC(=O)O3)[C@H]21` [Mevastatin, reference compound], 3.45 µM. As for `CCCCC1C(=O)NN(c2ccccc2)C1=O` (stereo not drawn) [Mofebutazone, mofebutazone, reference compound], the figure is 14.6 µM; as for `Oc1ccc(OCc2ccccc2)cc1` [Monobenzone, reference compound], 1.59 µM. As for `CCOc1cc(N)c(Cl)cc1C(=O)NCC1CN(Cc2ccc(F)cc2)CCO1` (stereo not drawn) [Mosapride (e.g., citrate), mosapride, reference compound], the figure is 10.9 µM.
